One data set concerns breast cancer. To be noted: cited from earlier work.
The subject of data set [1] is stage IV cholangiocarcinoma. Kind of data set: Example 4: trial ASLAN001-002, maintenance monotherapy, patient with stage IV cholangiocarcinoma. The data set is classed as in vivo, human. As to the method: A person (ASLAN001-002 2A101) had the past history of type 2 diabetes mellitus and hypertension for more than 10 years. They were diagnosed with stage IV cholangiocarcinoma in November 2014.
They joined the clinical trial, ASLAN001-002. The study treatment of cisplatin/5-FU plus continuous 400 mg varlitinib per oral twice a day started on 27 Jan. 2015.
After 6 cycles (28 days/cycle) of combined regimen, […] continued 400 mg varlitinib monotherapy for another 99 days. […] The total treatment duration of varlitinib maintenance therapy was 287 days.
The study treatment was discontinued due to disease progression.

The subject of data set [2] is squamous cell carcinoma of the cervix. Kind of data set: Example 1: maintenance therapy, patient with squamous cell carcinoma of the cervix. To be noted: 300 mg bi-daily; one patient, progressing after radiation and chemotherapy. The data set is classed as in vivo, human. As to the method: A patient diagnosed with squamous cell carcinoma of the cervix was initially treated with radiation therapy and concurrent weekly cisplatin. They had recurring disease the following year. They subsequently received a number of lines of chemotherapy, including topotecan/cisplating and ifosfamide. The cancer continued to progress.
They received 300 mg bi-daily of varlitinib for 6.5 years.
The patient received varlitinib maintenance therapy for about 6.5 years before developing transitional cell carcinoma of the bladder. It is likely that this bladder carcinoma was a result receiving pelvic radiation and/or treatment with ifsoamide.

Data set [3] relates to choloangiocarcinoma (CCA). Kind of data set: Example 2: maintenance monotherapy, patient with cholangiocarcinoma. The data set is classed as in vivo, human. As to the method: A person with choloangiocarcinoma (CCA), namely […] adenocarcinoma had already received surgery, was administered varlitinib at a dose of 400 mg bi-daily in combination with doublet chemotherapy for six 28-day cycles. Varlitinib was then used as maintenance therapy as monotherapy for 10 additional cycles, of 28 days of treatment.

Data set [4] concerns gastric tumors co-expressing EGFR and HER2 or HER2 amplified. Kind of data set: Phase I monotherapy trial in gastric cancer patients, tumor biopsies by immunohistochemistry. The data set is classed as in vivo, human. To be noted: 23 patients, 500 mg orally twice daily, monotherapy for 28 days; biopsies before and after treatment. As for the experimental part:
It has been tested as a monotherapy in phase I clinical trials of gastric cancer patients. 23 patients, who had previously failed on one or more rounds of chemotherapy and, where eligible, trastuzumab, each received 500 mg of ASLAN001 orally twice daily as monotherapy for 28 days. Tumor biopsies taken before and after treatment were analysed using immunohistochemistry.

The nature of data set [5]: General tolerability in patients. It counts as in vivo, human. To be noted: in comparison to many anti-cancer treatments.
The subject of data set [6] is intrahepatic cholangiocarcinoma. Kind of data set: Example 3: trial ASLAN001-002SG, maintenance monotherapy, patient with intrahepatic cholangiocarcinoma. The data set is classed as in vivo, human. From the text:
A person ([…]/0013) had the past history of meningioma post left craniotomy for tumor excision in 2007. They were diagnosed with intrahepatic cholangiocarcinoma in July 2013, and received left hemihepatectomy followed by adjuvant chemotherapy (gemcitabine plus cisplatin) from 14 Aug. 2013 to 8 Jan. 2014. Disease relapse was found in […]. Thus, they received systemic treatment with gemcitabine plus cisplatin from 13th May to 1 Jul. 2015. They joined the clinical trial, […]. The study treatment of bi-weekly FOLFOX plus continuous 400 mg varlitinib per oral twice a day started on 4 Aug. 2015. […] 2015, varlitinib was interrupted and reduced to 300 mg twice a day in combination with FOLFOX. After 9 cycles (14 days/cycle) of combined regimen, they continue varlitinib monotherapy.

Data set [7] concerns stage IV gastric cancer. Kind of data set: Example 7: trial ASLAN001-002, maintenance monotherapy, patient with stage IV gastric cancer. It counts as in vivo, human. As for the experimental part:
A person (ASLAN001-002 2B302) had the underlying disease of gastro-esophageal reflux disease. They were diagnosed with stage IV gastric cancer in Jul. 2016.
They joined the clinical trial, ASLAN001-002. The study treatment of cisplatin/capecitabine plus continuous 300 mg varlitinib per oral twice a day started on 6 Sep. 2016. After 6 cycles (21 days/cycle) of combined regimen, they continue varlitinib monotherapy. The total treatment duration of varlitinib maintenance therapy was 134 days. […] The study treatment was discontinued due to disease progression.

Another data set relates to stage IV bladder cancer. Kind of data set: Example 6: trial ASLAN001-002SG, maintenance monotherapy, patient with stage IV bladder cancer. It counts as in vivo, human. An excerpt:
A person (ASLAN001-002SG DNT/0012) had the past history of type 2 diabetes mellitus, atrial fibrillation, hypertension, hyperlipidemia, and grade 1 hearing loss. They were diagnosed with stage IV bladder cancer and received radical cystoprostatectomy on 13 Dec. 2013. They also received cisplatin based concurrent radiotherapy on 20 Feb. 2014, and gemcitabine plus cisplatin from 10 Apr. to 8 May 2015.
They joined the clinical trial, ASLAN001-002SG. The study treatment of bi-weekly FOLFOX plus continuous 300 mg varlitinib per oral twice a day started on 24 Aug. 2015. After 9 cycles (14 days/cycle) of combined regimen, they continued varlitinib monotherapy. The total treatment duration of varlitinib maintenance therapy was 140 days. […] The study treatment was discontinued due to disease progression.

Data set [8] concerns stage IV gastric cancer. Kind of data set: Example 5: trial ASLAN001-002, maintenance monotherapy, patient with stage IV gastric cancer. It counts as in vivo, human. As for the experimental part: A person (ASLAN001-002 2A102) had the past history of hypertension for more than 5 years. They were diagnosed with stage IV gastric cancer in April 2015.
They joined the clinical trial, ASLAN001-002. The study treatment of cisplatin/5-FUplus continuous 400 mg varlitinib per oral twice a day started on 12 May 2015. After 6 cycles (28 days/cycle) of combined regimen, they continued 400 mg varlitinib monotherapy for another 112 days. […] The total treatment duration of varlitinib maintenance therapy was 243 days. […] The study treatment was discontinued due to disease progression.

The mark [9] stands for this setting: women who didn't take hormone replacement therapy.

Data on two compounds can be found in patent US20190321365A1, “Maintenance Therapy for the Treatment of Cancer” (Aslan Pharmaceuticals Pte. Ltd., priority 2016, published 2019).

Each structure is given as a SMILES string. Read-outs that look alike come from different tables or passages of the source.

As for `CC/C(=C(\c1ccccc1)c1ccc(OCCN(C)C)cc1)c1ccccc1` [tamoxifen], the “reduction of the risk of breast cancer” value in the data set with breast cancer (women at high risk, long-term study) is listed as 29%. Besides, in the data set with breast cancer (women at high risk), the “effect on the risk of estrogen-receptor-negative breast cancer” value is recorded as “didn't reduce the risk” and the “reduction of the risk of estrogen-receptor-positive breast cancer” value is recorded as 35%. Moreover, in the data set with breast cancer (setting [9]), the “reduction of the risk of breast cancer” value is on record as 38% and the “reduction of the risk of estrogen-receptor-positive disease” value was 45%.
With `C[C@@H]1COC(Nc2ccc3ncnc(Nc4ccc(OCc5nccs5)c(Cl)c4)c3c2)=N1` [varlitinib, (R)-N4-[3-Chloro-4-(thiazol-2-ylmethoxy)-phenyl]-N6-(4-methyl-4,5,-dihydro-oxazol-2-yl)-quinazoline-4,6-diamine], the “adverse event leading to dose tapering” value (in [1] (after 99 days of 400 mg monotherapy); in the data set on stage IV gastric cancer [8] (after 112 days of 400 mg monotherapy)) was “creatinine increase” in each case. The best tumor response entry is recorded as “non-complete response/non-progressive disease” in [1] (non-target disease); “stable disease” in the data set on stage IV gastric cancer [7] (human, in vivo); “stable disease” in the data set on stage IV bladder cancer (human, in vivo); “partial response” in the data set on stage IV gastric cancer [8] (human, in vivo). Also, the “total treatment duration of maintenance therapy” value in data set [1] (person, 400 mg monotherapy, then 300 mg twice a day 1 week on and 1 week off, discontinued due to disease progression) is given as 287 days; in the data set on stage IV gastric cancer [7] (person, monotherapy after 6 cycles of cisplatin/capecitabine plus 300 mg twice a day, discontinued due to disease progression) it was 134 days; in the data set on stage IV bladder cancer (person, monotherapy after 9 cycles of FOLFOX plus 300 mg twice a day, discontinued due to disease progression) it was 140 days; in the data set with stage IV gastric cancer [8] (person, 400 mg monotherapy, then 300 mg twice a day, discontinued due to disease progression) it was 243 days. In addition, the “duration of maintenance therapy before developing transitional cell carcinoma of the bladder” value in data set [2] was “about 6.5 years”. Further, in data set [3] (monotherapy 400 mg bi-daily, at cycle 10 day 15), the “adverse event leading to dose reduction” value is reported as “increase in G3 creatinine levels”. Moreover, in data set [3] (period of 10 cycles of maintenance therapy), the “target lesion during maintenance therapy” value was “no target lesion was observed”. The “disease status during maintenance therapy” value in data set [3] (person, stage VI adenocarcinoma, monotherapy 400 then 300 mg bi-daily, 10 cycles of 28 days, after six cycles with doublet chemotherapy) is “stable disease”. Further, the “signs of clinical activity in tumor biopsies” value in data set [4] was “downregulation of signalling pathways responsible for cell proliferation, and a reduction in cell survival and cell proliferation”. In addition, in [5], the tolerability result is reported as “very well tolerated”. In addition, the “adverse event leading to interruption and dose reduction” value in [6] (400 mg per oral twice a day in combination with bi-weekly FOLFOX) is given as “grade 3 hyperbilirubinemia”. In addition, the tumor status entry in data set [6] (after 504 days of maintenance treatment) was “partial response”. For the same compound, the “duration of maintenance treatment to date” value in data set [6] (person, monotherapy after 9 cycles with FOLFOX, 300 mg twice a day, ongoing) worked out at 504 days.
